Our source for the mortality values is US9523100B2, “Pesticidal compositions and related methods” (DOW AGROSCIENCES LLC, priority 2013, dated 2016).

The term mortality denotes the percentage killed.

Experiment [1] concerns Sweetpotato Whitefly-Crawler (WF) (Bemisia tabaci) (BEMITA). Nature of the experiment: Insecticidal test for Sweetpotato Whitefly-Crawler (WF) in foliar spray assay on cotton plants. Format: in vivo. To be noted: 216 h, 200 ppm foliar spray on cotton plants, graded after 9 days, Abbott corrected % control, read-out: WF 200 ppm, % Control (or Mortality) rating. An excerpt: Insecticidal Test for Sweetpotato Whitefly-Crawler (WF) (Bemisia tabaci) (BEMITA) in Foliar Spray Assay
The sweetpotato whitefly (Bemisia tabaci) has been reported as a serious pest of cultivated crops world-wide. It has an extremely wide host range attacking more than 500 species of plants from 63 plant families. Weeds often serve as alternate hosts of crop pests. Direct feeding damage is caused by the piercing and sucking sap from the foliage of plants. This feeding causes weakening and early wilting of the plant and reduces the plant growth rate and yield Indirect damage results by the accumulation of honeydew produced by the whiteflies. Honeydew serves as a substrate for the growth of black sooty mold on leaves and fruit reducing photosynthesis and lessens the market value of the plant or yield. […] The sweetpotato whitefly is considered the most common and important whitefly vector of plant viruses worldwide.
Cotton plants (Gossypium hirsutum) grown in 3-inch pots, with 1 small (4-5 cm) true leaves, were used as test substrate. The plants were infested with 200-400 whitefly eggs 4-5 days prior to chemical application. Four pots with individual plants were used for each treatment. Test compounds (2 mg) were dissolved in 1 mL of acetone solvent, forming stock solutions of 2000 ppm test compound. The stock solutions were diluted 10× with 0.025% Tween 20 in water (diluents) to obtain the solution at 200 ppm test compound. A hand-held aspirator-type sprayer was used for spraying a solution to both sides of cotton leaves until runoff. Reference plants (solvent check) were sprayed with the diluent only containing 10% by volume of acetone solvent. Treated plants were held in a holding room for 9 days at approximately 25° C. and ambient relative humidity (RH) prior to grading. Evaluation was conducted by counting the number of live 3-4 nymph stage per plant under a microscope. Percent control was measured by using Abbott's correction formula (W. S. Abbott, “A Method of Computing the Effectiveness of an Insecticide” J. Econ. Entomol. 18 (1925), pp. 265-267) as follows.
Biological Data for Green Peach Aphid (GPA) (MYZUPE) and Sweetpotato Whitefly-Crawler (WF) (BEMITA)” (see table section). Corrected % Control=100*(X−Y)/X
X=No. of live nymphs on solvent check plants and
Y=No. of live nymphs on treated plants
(§1) The mortality efficiency of the pesticidal compounds against GPA and WF insects was determined after treatment.

Experiment [2] relates to Green Peach Aphid (GPA) (Myzus persicae) (MYZUPE). The experiment in a line: Bioassay for Green Peach Aphid (GPA), foliar spray on cabbage seedlings. Type of experiment: in vivo. To be noted: 72 h, 200 ppm foliar spray on cabbage seedlings, graded after three days, Abbott corrected % control, read-out: GPA 200 ppm, % Control (or Mortality) rating.
Excerpt: Bioassay for Green Peach Aphid (GPA) (Myzus persicae) (MYZUPE)
The green peach aphid (Myzus persicae) is the most significant aphid pest of peach trees, causing decreased growth, shriveling of the leaves, and the death of various tissues. It is also hazardous because it acts as a vector for the transport of plant viruses, such as potato virus Y and potato leafroll virus to members of the nightshade/potato family Solanaceae, and various mosaic viruses to many other food crops. GPA attacks such plants as broccoli, burdock, cabbage, carrot, cauliflower, daikon, eggplant, green beans, lettuce, macadamia, papaya, peppers, sweet potatoes, tomatoes, watercress, and zucchini, among other plants GPA also attacks many ornamental crops such as carnation, chrysanthemum, flowering white cabbage, poinsettia, and roses. GPA has developed resistance to many pesticides.
Cabbage seedlings grown in 3-inch pots, with 2-3 small (3-5 cm) true leaves, were used as test substrate. The seedlings were infested with 20-50 GPA (wingless adult and nymph stages) one day prior to chemical application. Four pots with individual seedlings were used for each treatment. Test compounds (2 mg) were dissolved in 2 mL of acetone/methanol (1:1) solvent, forming stock solutions of 1000 ppm test compound. The stock solutions were diluted 5× with 0.025% Tween 20 in water to obtain the solution at 200 ppm test compound. A hand-held aspirator-type sprayer was used for spraying a solution to both sides of […] leaves until runoff. Reference plants (solvent check) were sprayed with the diluent only containing 20% by volume of acetone/methanol (1:1) solvent. Treated plants were held in a holding room for three days at approximately 25° C. and ambient relative humidity (RH) prior to grading. Evaluation was conducted by counting the number of live aphids per plant under a microscope. Percent control was measured by using Abbott's correction formula (W. S. Abbott, “A Method of Computing the Effectiveness of an Insecticide” J. Econ. Entomol. 18 (1925), pp. 265-267) as follows. Corrected % Control=100*(X−Y)/X
X=No. of live aphids on solvent check plants and
Y=No. of live aphids on treated plants
Biological Data for Green Peach Aphid (GPA) (MYZUPE) and Sweetpotato Whitefly-Crawler (WF) (BEMITA)” (see table section).
as §1

With `CCN(C(=O)CC/C(=N\OCC1CC(F)(F)C1)c1cccs1)c1cn(-c2cccnc2)nc1Cl` [FA30, (E)-N-(3-Chloro-1-(pyridin-3-yl)-1H-pyrazol-4-yl)-4-(((3,3-difluorocyclobutyl)methoxy)imino)-N-ethyl-4-(thiophen-2-yl)butanamide], the mortality at 200 ppm is 0 to 80% in experiment [1] and less than 0% in experiment [2].

As for `CCN(C(=O)C1CCN(C(=O)CCC#N)CC1)c1cn(-c2cccnc2)nc1Cl` [FA7, N-(3-Chloro-1-(pyridin-3-yl)-1H-pyrazol-4-yl)-1-(3-cyanopropanoyl)-N-ethylpiperidine-4-carboxamide], the mortality at 200 ppm is less than 0% in experiment [1] and 80 to 100% in experiment [2].

Regarding `CCN(C(=O)CCCN1CCCC1=O)c1cn(-c2cccnc2)nc1Cl` [FA33, N-(3-Chloro-1-(pyridin-3-yl)-1H-pyrazol-4-yl)-N-ethyl-4-(2-oxopyrrolidin-1-yl)butanamide], the mortality at 200 ppm in experiment [1] and in experiment [2] was 80 to 100% in each case.

In the case of `CCN(C(=O)CN(C)C(=O)c1ccccc1)c1cn(-c2cccnc2)nc1Cl` [Compound F83, N-(2-((3-chloro-1-(pyridin-3-yl)-1H-pyrazol-4-yl)(ethyl)amino)-2-oxoethyl)-N-methylbenzamide], the mortality at 200 ppm lay in the range of 0 to 80% in experiment [1] and 80 to 100% in experiment [2].

`CCN(C(=O)CC/C(=N/OCCCC(F)(F)F)c1cccs1)c1cn(-c2cccnc2)nc1Cl` [FA27, (Z)-N-(3-Chloro-1-(pyridin-3-yl)-1H-pyrazol-4-yl)-N-ethyl-4-(thiophen-2-yl)-4-((4,4,4-trifluorobutoxy)imino)butanamide]: the mortality at 200 ppm in experiment [1] and in experiment [2] was 0 to 80% each time.

On to `CCN(C(=O)CCn1ccc(/C(C)=N/OC(C)C)n1)c1cn(-c2cccnc2)nc1Cl` [FA2, (E/Z)-N-(3-Chloro-1-(pyridin-3-yl)-1H-pyrazol-4-yl)-N-ethyl-3-(3-(1-(isopropoxyimino)ethyl)-1H-pyrazol-1-yl)propanamide], for which the mortality at 200 ppm is 80 to 100% in experiment [1] and 0 to 80% in experiment [2].

For `CCN(C(=O)CCCC1CN(Cc2ccc(C(F)(F)F)cc2)C1=O)c1cn(-c2cccnc2)nc1Cl` (stereo not shown) [Compound F127, N-(3-Chloro-1-(pyridin-3-yl)-1H-pyrazol-4-yl)-N-ethyl-4-(2-oxo-1-(4-(trifluoromethyl)benzyl)azetidin-3-yl)butanamide], the mortality at 200 ppm in experiment [1] is 80 to 100%; in experiment [2], 0 to 80%.

For the compound `CCN(C(=O)CNC(=O)CCC(F)(F)F)c1cn(-c2cccnc2)nc1Cl` [Compound F97, N-(2-((3-Chloro-1-(pyridin-3-yl)-1H-pyrazol-4-yl)(ethyl)amino)-2-oxoethyl)-4,4,4-trifluorobutanamide], the mortality at 200 ppm in experiment [1] and in experiment [2] was 80 to 100% in each case.

As to `CCN(C(=O)C1CCN(C(=O)CCC(F)(F)F)CC1)c1cn(-c2cccnc2)nc1Cl` [FA6, N-(3-Chloro-1-(pyridin-3-yl)-1H-pyrazol-4-yl)-N-ethyl-1-(4,4,4-trifluorobutanoyl)piperidine-4-carboxamide], the mortality at 200 ppm in experiment [1] lay in the range of 0 to 80%; in experiment [2], 80 to 100%.

Consider `CCN(C(=O)C1CCN(C(C)=O)CC1)c1cn(-c2cccnc2)nc1Cl` [Compound F61, 1-Acetyl-N-(3-chloro-1-(pyridin-3-yl)-1H-pyrazol-4-yl)-N-ethylpiperidine-4-carboxamide], for which the mortality at 200 ppm in experiment [1] was in the range of 0 to 80%; in experiment [2], 80 to 100%.

Regarding `CCN(C(=O)CCCN1CCOC1=O)c1cn(-c2cccnc2)nc1Cl` [FA34, N-(3-Chloro-1-(pyridin-3-yl)-1H-pyrazol-4-yl)-N-ethyl-4-(2-oxooxazolidin-3-yl)butanamide], the mortality at 200 ppm in experiment [1] and in experiment [2] was 80 to 100% in each case.

Consider `CCN(C(=O)C1CN(C(=O)CCC(F)(F)F)C1)c1cn(-c2cccnc2)nc1Cl` [FA15, N-(3-Chloro-1-(pyridin-3-yl)-1H-pyrazol-4-yl)-N-ethyl-1-(4,4,4-trifluorobutanoyl)azetidine-3-carboxamide], for which the mortality at 200 ppm in experiment [1] and in experiment [2] was 80 to 100% throughout.

For the compound `CCN(C(=O)CC/C(C)=N/OCc1ccc(OC(F)(F)F)cc1)c1cn(-c2cccnc2)nc1Cl` [FA40, (E/Z)-N-(3-Chloro-1-(pyridin-3-yl)-1H-pyrazol-4-yl)-N-ethyl-4-(((4-(trifluoromethoxy)benzyl)oxy)imino)pentanamide], the mortality at 200 ppm fell in the range of 80 to 100% in experiment [1] and 0 to 80% in experiment [2].

With `CCN(C(=O)C1CCN(C(C)=O)C1)c1cn(-c2cccnc2)nc1Cl` (stereo not shown) [Compound P20, 1-Acetyl-N-(3-chloro-1-(pyridin-3-yl)-1H-pyrazol-4-yl)-N-ethylpyrrolidine-3-carboxamide], the mortality at 200 ppm in experiment [1] is 0 to 80%; in experiment [2] it was 80 to 100%.

`CC(=O)N1CCC(C(=O)N(C)c2cn(-c3cccnc3)nc2Cl)CC1` [Compound F29, 1-Acetyl-N-(3-chloro-1-(pyridin-3-yl)-1H-pyrazol-4-yl)-N-methylpiperidine-4-carboxamide]: the mortality at 200 ppm in experiment [1] and in experiment [2] was 80 to 100% each time.

`CCN(C(=O)CNC(=O)OC(C)(C)C)c1cn(-c2cccnc2)nc1Cl` [Compound F2, tert-Butyl (2-((3-chloro-1-(pyridin-3-yl)-1H-pyrazol-4-yl)(ethyl)amino)-2-oxoethyl)carbamate]: the mortality at 200 ppm in experiment [1] and in experiment [2] was 80 to 100% in each case.

Turning to `CCN(C(=O)CC/C(=N/OCCCCC(F)(F)F)c1cccs1)c1cn(-c2cccnc2)nc1Cl` [FA29, (Z)-N-(3-Chloro-1-(pyridin-3-yl)-1H-pyrazol-4-yl)-N-ethyl-4-(thiophen-2-yl)-4-(((5,5,5-trifluoropentyl)oxy)imino)butanamide], the mortality at 200 ppm was 80 to 100% in experiment [1] and 0 to 80% in experiment [2].

For `CCN(C(=O)CC/C(=N/OCC1CC1(F)F)c1cccs1)c1cn(-c2cccnc2)nc1Cl` (stereo not shown) [FA39, (Z)-N-(3-Chloro-1-(pyridin-3-yl)-1H-pyrazol-4-yl)-4-(((2,2-difluorocyclopropyl)methoxy)imino)-N-ethyl-4-(thiophen-2-yl)butanamide], the mortality at 200 ppm in experiment [1] and in experiment [2] was 0 to 80% each time.

Turning to `CCN(C(=O)C1CCN(C(=O)c2cccnc2)CC1)c1cn(-c2cccnc2)nc1Cl` [FA8, N-(3-Chloro-1-(pyridin-3-yl)-1H-pyrazol-4-yl)-N-ethyl-1-nicotinoylpiperidine-4-carboxamide], the mortality at 200 ppm fell in the range of 0 to 80% in experiment [1] and 80 to 100% in experiment [2].

Consider `CCN(C(=O)C(C)N(C)C(=O)CC(F)(F)F)c1cn(-c2cccnc2)nc1Cl` (stereo not shown) [Compound F66, N-(1-((3-Chloro-1-(pyridin-3-yl)-1H-pyrazol-4-yl)(ethyl)amino)-1-oxopropan-2-yl)-3,3,3-trifluoro-N-methylpropanamide], for which the mortality at 200 ppm in experiment [1] and in experiment [2] was 80 to 100% throughout.
